The values below come from ChEMBL document CHEMBL4477270, “Design, synthesis, and protein methyltransferase activity of a unique set of constrained amine containing compounds” (Bioorg Med Chem Lett, 2016).

Some results are limits rather than exact numbers.

The assay addresses T1, N-lysine methyltransferase KMT5A (Homo sapiens, UniProt Q9NQR1).
T1 sequence (Q9NQR1 whole entry): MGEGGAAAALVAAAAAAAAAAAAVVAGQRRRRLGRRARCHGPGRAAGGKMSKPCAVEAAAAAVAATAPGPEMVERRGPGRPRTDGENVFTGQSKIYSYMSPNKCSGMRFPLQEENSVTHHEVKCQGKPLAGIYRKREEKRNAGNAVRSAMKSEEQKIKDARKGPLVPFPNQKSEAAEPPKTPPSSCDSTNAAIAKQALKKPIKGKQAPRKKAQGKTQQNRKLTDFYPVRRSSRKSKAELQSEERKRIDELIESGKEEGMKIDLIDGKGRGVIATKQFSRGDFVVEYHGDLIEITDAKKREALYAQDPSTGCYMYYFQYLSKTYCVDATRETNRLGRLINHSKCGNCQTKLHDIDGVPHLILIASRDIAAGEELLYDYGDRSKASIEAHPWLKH
The assay can be described thus: Inhibition of SETD8 in HEK293T cells assessed as reduction in H4K20me level after 2 to 3 days by Western blot analysis. In kind it is cell-based. For orientation: In western blotting, separated proteins are transferred to a membrane and probed.

`CC1(C)C(=O)N=C2C1=C(O)C(=O)c1ccccc12`: the EC50 was less than 5 µM.

As for `O=C1C(Cl)=C(NCCN2CCOCC2)C(=O)c2ncccc21`, the EC50 was less than 5 µM. On to `Cc1ccc(/N=C2\CC(=O)c3sc(C)nc3C2=O)cc1`, for which the EC50 was less than 1 µM.

The EC50 is the concentration that produces a half-maximal response.
